The supplement of paper PMC10307832

Legend:
Test in all cases: relative viability (nuclei count vs DMSO), 5 days (fraction); higher = more cells survive
[1] = compound: CN(NC(=O)CC(=O)NN(C)C(=S)c1ccccc1)C(=S)c1ccccc1 [Elesclomol] + CC(C)C[C@H](NC(=O)[C@H](Cc1ccccc1)NC(=O)c1cnccn1)B(O)O [Bortezomib] (partner 0.002 µM)
Summary of the method: (§1)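 Values are medians from duplicate plates. Each reflects relative viability, defined as the nuclei count of treated wells over that of vehicle wells. Lung cancer cell lines in 1536-well plates were pin-tool dosed one day after seeding with one drug alone or with a fixed anchor-drug dose plus five library-drug doses (not always all listed) in √10 steps, then fixed, stained and imaged at 4× after 5 days.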

[2] = compound: CN(NC(=O)CC(=O)NN(C)C(=S)c1ccccc1)C(=S)c1ccccc1 [Elesclomol] + Nc1nc2[nH]cc(CCc3ccc(C(=O)N[C@@H](CCC(=O)O)C(=O)O)cc3)c2c(=O)[nH]1 [Pemetrexed] (partner 0.2 µM)
Summary of the method: as §1

[3] = compound: CN(NC(=O)CC(=O)NN(C)C(=S)c1ccccc1)C(=S)c1ccccc1 [Elesclomol] + CS(=O)(=O)N1CCN(Cc2cc3nc(-c4cccc5[nH]ncc45)nc(N4CCOCC4)c3s2)CC1 [Pictilisib] (partner 1 µM)
Summary of the method: as §1

[4] = compound: CN(NC(=O)CC(=O)NN(C)C(=S)c1ccccc1)C(=S)c1ccccc1 [Elesclomol] + CC(=O)c1c(C)c2cnc(Nc3ccc(N4CCNCC4)cn3)nc2n(C2CCCC2)c1=O [Palbociclib] (partner 0.5 µM)
Summary of the method: as §1

[5] = compound: CN(NC(=O)CC(=O)NN(C)C(=S)c1ccccc1)C(=S)c1ccccc1 [Elesclomol] + CS(=O)(=O)CCNCc1ccc(-c2ccc3ncnc(Nc4ccc(OCc5cccc(F)c5)c(Cl)c4)c3c2)o1 [Lapatinib] (partner 2 µM)
Summary of the method: as §1

Cell Line	relative viability ([1]; first compound 0.003162 µM)	relative viability ([1]; first compound 0.01 µM)	relative viability ([1]; first compound 0.03162 µM)	relative viability ([1]; first compound 0.1 µM)	relative viability ([2]; first compound 0.003162 µM)	relative viability ([2]; first compound 0.01 µM)	relative viability ([2]; first compound 0.03162 µM)	relative viability ([2]; first compound 0.1 µM)	relative viability ([3]; first compound 0.003162 µM)	relative viability ([3]; first compound 0.01 µM)	relative viability ([3]; first compound 0.03162 µM)	relative viability ([3]; first compound 0.1 µM)	relative viability ([4]; first compound 0.003162 µM)	relative viability ([4]; first compound 0.01 µM)	relative viability ([4]; first compound 0.03162 µM)	relative viability ([4]; first compound 0.1 µM)	relative viability ([5]; first compound 0.003162 µM)	relative viability ([5]; first compound 0.01 µM)	relative viability ([5]; first compound 0.03162 µM)	relative viability ([5]; first compound 0.1 µM)
HCC-366	1.09	1.04	0.688	0.0134	0.167	0.156	0.116	0.0342	0.135	0.123	0.211	0.0502	0.393	0.393	0.0812	0.0176	1.07	1.06	0.563	0.015
HCC-827	1.03	0.998	0.947	0.999	0.275	0.272	0.258	0.246	1.03	0.988	1.04	0.811	0.471	0.436	0.428	0.626	0.178	0.206	0.194	0.188
HOP-62	0.884	0.708	0.83	0.146	0.369	0.333	0.224	0.113	0.694	0.269	0.582	0.239	0.461	0.333	0.305	0.144	1.17	0.872	0.811	0.251
LC-2-ad	0.978	0.337	0.11	0.0678	0.294	0.269	0.236	0.201	0.419	0.195	0.102	0.0937	0.482	0.409	0.223	0.193	0.876	0.334	0.111	0.0969
LCLC-97TM1	0.493	0.0794	0.0851	0.0274	0.159	0.133	0.164	0.0782	0.173	0.118	0.115	0.0666	0.189	0.193	0.277	0.129	0.575	0.299	0.687	0.0906
LOU-NH91	0.537	0.525	0.423	0.463	0.401	0.404	0.487	0.375	0.447	0.511	0.45	0.424	0.518	0.566	0.535	0.508	0.733	0.669	0.574	0.478
LU99A	1.21	–	1.18	0.121	0.188	0.183	0.185	0.198	0.316	–	0.325	0.137	0.394	0.269	0.408	0.179	1.02	–	0.921	0.135
LXF-289	0.997	0.998	0.968	0.673	0.894	0.971	0.867	0.552	0.781	0.709	0.749	0.501	0.627	0.561	0.548	0.36	0.925	0.881	0.876	0.677
NCI-H23	1.07	–	0.603	0.119	0.787	0.568	0.503	0.12	0.536	–	0.366	0.147	0.531	0.413	0.269	0.127	1.12	–	0.799	0.139
NCI-H322M	1.17	–	1.25	1.15	0.515	0.368	0.293	0.0948	0.478	–	0.519	0.382	0.387	0.381	0.331	0.246	0.563	–	0.624	0.399
NCI-H460	0.911	0.292	0.0099	0.0073	0.0667	0.0599	0.0708	0.0235	0.361	0.291	0.309	0.259	0.185	0.138	0.0179	0.0102	0.755	0.229	0.0103	0.0101
NCI-H520	0.481	0.248	0.2	0.0916	0.724	0.779	0.335	0.109	0.255	0.279	0.22	0.132	0.254	0.213	0.183	0.0937	0.91	0.666	0.373	0.0913
NCI-H647	0.924	0.773	0.589	0.0718	0.172	0.158	0.139	0.0481	0.492	0.168	0.204	0.0838	0.309	0.257	0.128	0.0311	1.08	0.765	0.267	0.0231
NCI-H650	1.02	0.309	0.199	0.198	0.884	0.728	0.449	0.191	0.875	0.361	0.276	0.256	0.328	0.292	0.174	0.133	0.805	0.373	0.195	0.289
NCI-H661	0.635	0.288	0.209	0.182	0.884	0.596	0.38	0.331	0.356	0.373	0.214	0.212	0.408	0.337	0.235	0.181	0.368	0.205	0.236	0.186
NCI-H838	0.825	0.581	0.621	0.609	0.254	0.217	0.252	0.195	0.465	0.413	0.439	0.357	0.229	0.189	0.247	0.143	0.984	0.838	0.683	0.555

Cell Line	relative viability ([1]; first compound 0.003162 µM)	relative viability ([1]; first compound 0.01 µM)	relative viability ([1]; first compound 0.03162 µM)	relative viability ([1]; first compound 0.1 µM)	relative viability ([2]; first compound 0.003162 µM)	relative viability ([2]; first compound 0.01 µM)	relative viability ([2]; first compound 0.03162 µM)	relative viability ([2]; first compound 0.1 µM)	relative viability ([3]; first compound 0.003162 µM)	relative viability ([3]; first compound 0.01 µM)	relative viability ([3]; first compound 0.03162 µM)	relative viability ([3]; first compound 0.1 µM)	relative viability ([4]; first compound 0.003162 µM)	relative viability ([4]; first compound 0.01 µM)	relative viability ([4]; first compound 0.03162 µM)	relative viability ([4]; first compound 0.1 µM)	relative viability ([5]; first compound 0.003162 µM)	relative viability ([5]; first compound 0.01 µM)	relative viability ([5]; first compound 0.03162 µM)	relative viability ([5]; first compound 0.1 µM)
NCI-H1355	1.15	1.08	0.828	0.24	1.02	0.992	0.721	0.206	0.549	0.191	0.257	0.178	0.429	0.344	0.3	0.171	1.05	0.786	0.657	0.222
NCI-H1437	0.388	0.32	0.268	0.264	0.317	0.249	0.224	0.243	0.391	0.321	0.198	0.137	0.3	0.247	0.257	0.208	0.637	0.45	0.346	0.265
NCI-H1650	0.229	0.206	0.165	0.16	0.304	0.294	0.333	0.095	0.185	0.177	0.18	0.15	0.234	0.155	0.104	0.0955	0.38	0.277	0.184	0.17
NCI-H1651	0.859	0.931	0.872	0.655	0.638	0.61	0.535	0.432	0.454	0.323	0.177	0.0888	0.509	0.516	0.532	0.341	0.715	0.415	0.112	0.0857
NCI-H1666	0.826	0.334	0.278	0.172	0.998	0.801	0.817	0.724	0.359	0.267	0.243	0.195	0.682	0.563	0.575	0.583	0.556	0.326	0.229	0.153
NCI-H1734	0.957	0.738	0.405	0.12	0.436	0.507	0.234	0.11	0.511	0.328	0.248	0.117	0.334	0.326	0.132	0.105	1.11	0.893	0.294	0.125
NCI-H1755	1.06	0.831	0.951	0.304	0.383	0.359	0.426	0.348	0.481	0.225	0.409	0.202	0.483	0.429	0.462	0.393	1.05	0.939	0.887	0.236
NCI-H1792	0.894	0.85	0.968	0.986	0.79	–	0.793	0.277	0.262	0.171	0.3	0.357	0.544	0.569	0.607	0.662	0.867	0.841	0.807	0.932
NCI-H1915	0.857	–	1.01	0.526	0.499	0.456	0.481	0.286	0.924	–	0.916	0.821	0.517	0.381	0.489	0.206	0.986	–	0.948	0.78
NCI-H1975	0.351	0.316	0.193	0.109	0.298	0.292	0.17	0.133	0.306	0.179	0.2	0.123	0.579	0.263	0.205	0.0984	0.84	0.571	0.164	0.1
NCI-H1993	1.07	1.05	0.49	0.493	0.707	0.6	0.486	0.366	0.798	0.909	0.807	0.603	0.712	0.564	0.456	0.433	0.753	0.809	0.697	0.563
NCI-H2009	0.929	0.229	0.115	0.0727	1.02	0.982	0.312	0.115	0.797	0.225	0.122	0.0966	0.224	0.172	0.116	0.0798	0.841	0.178	0.136	0.107
NCI-H2023	0.744	0.374	0.146	0.0637	0.172	0.128	0.0613	0.0421	0.219	0.148	0.0682	0.0514	0.355	0.124	0.0385	0.0417	0.384	0.266	0.0556	0.0486
NCI-H2085	0.938	0.662	0.577	0.349	0.911	0.902	0.64	0.168	0.419	0.444	0.433	0.322	0.459	0.423	0.333	0.255	0.761	0.521	0.397	0.376
NCI-H2087	0.896	0.49	0.502	0.495	0.588	0.685	0.609	0.108	0.879	0.559	0.491	0.495	0.222	0.188	0.176	0.0806	0.895	0.519	0.58	0.569
NCI-H2126	1.11	1.08	1.11	1.17	0.766	0.59	0.686	0.542	0.501	0.462	0.494	0.495	0.341	0.357	0.352	0.309	0.731	0.698	0.791	0.766
